Patent US20180255776A1, “HERBICIDAL COMPOSITIONS CONTAINING 4-AMINO-3-CHLORO-6-(4-CHLORO-2-FLUORO-3-METHOXYPHENYL) PYRIDINE-2-CARBOXYLIC ACID OR A DERIVATIVE THEREOF, A TRIAZOLOPYRIMIDINE SULFONAMIDE HERBICIDE OR A DERIVATIVE THEREOF, AND GLYPHOSATE OR A DERIVATIVE THEREOF” (DOW AGROSCIENCES LLC, priority 2015, published 2018)
Counter-ions that a name gives are not always drawn.

Columns and labels:
Assay in all cases: Post-emergence field trial, visual % weed control
Assay type in all cases: in vivo
[1] = tested on: Commelina benghalensis (hairy wandering Jew, COMBE); conditions: 35DAA, Glyphosate DMA salt 960 g ai/ha
Method: (§1) Treatments consisted of the methyl ester of 4-amino-3-chloro-6-(4-chloro-2-fluoro-3-methoxyphenyl)pyridine-2-carboxylic acid (Cmpd 1) and diclosulam in combination as GF-3220. […] Glyphosate dimethylammonium salt was applied as various commercial formulations containing 480 grams acid equivalent per liter (g ae/L).
(§2) Field trials were conducted under standard field conditions. Plot sizes varied from 3-4 meters (m) wide by 5-10 m long. Treatments were applied with small plot backpack sprayers, using pressurized carbon dioxide (CO2) as propellant. Pressure varied from 30-50 pounds per square inch (PSI), with spray tips typically of a Flat Fan type applying water diluent at 100-150 liters per hectare (L/ha). Boom sizes varied from 3-4 m in width. Weed sizes varied, but all treatments were applied as post-emergence treatments to weeds from 2 leaf to 2 tiller growth stages varying from 2-15 inches in height. No additional adjuvant was mixed with the treatments applied in the field.
(§3) The weed spectrum included, but was not limited to, Commelina benghalensis (hairy wandering Jew, COMBE), Echinochloa crus-galli (barnyardgrass, ECHCG), Euphorbia heterophylla (wild poinsettia, EPHHL), Conyza bonariensis (hairy fleabane, ERIBO), Conyza canadensis (horseweed, ERICA), Conyza sumatrensis (Guernsey fleabane, ERISU) and Ipomoea grandifolia (Corda-de-viola, IAQGR).
(§4) The values reported are percent (%) control visually rated. The predicted percent (%) weed control was determined using Colby's equation.

[2] = tested on: Conyza canadensis (horseweed, ERICA); conditions: Glyphosate DMA salt 1200 g ai/ha
Method: as §1, §2, §3, §4

[3] = tested on: Euphorbia heterophylla (wild poinsettia, EPHHL); conditions: 35DAA, Glyphosate DMA salt 960 g ai/ha
Method: as §1, §2, §3, §4

[4] = tested on: Ipomoea grandifolia (Corda-de-viola, IAQGR); conditions: Glyphosate DMA salt 960 g ai/ha
Method: as §1, §2, §3, §4

[5] = tested on: Conyza bonariensis (hairy fleabane, ERIBO); conditions: Glyphosate DMA salt 960 g ai/ha
Method: as §1, §2, §3, §4

[6] = tested on: Conyza sumatrensis (Guernsey fleabane, ERISU); conditions: Glyphosate DMA salt 1200 g ai/ha
Method: as §1, §2, §3, §4

O=C(O)CNCP(=O)(O)O [Glyphosate DMA salt, Glyphosate dimethylammonium salt]
Mean % weed control [1]: 62.0% | Mean % weed control ([2]; 46DAA): 25.0% | Mean % weed control ([2]; 62DAA): 20.0% | Mean % weed control [3]: 7.5% | Mean % weed control ([4]; 14DAA): 40.0% | Mean % weed control ([4]; 28DAA): 45.0% | Mean % weed control ([5]; 9DAA): 10.0% | Mean % weed control ([5]; 14DAA): 40.0% | Mean % weed control ([5]; 35DAA): 25.0% | Mean % weed control ([5]; 67DAA): 20.0% | Mean % weed control ([6]; 19DAA): 19.0% | Mean % weed control ([6]; 29DAA): 17.0%
